Reference: US20220030868A1, “FUNGICIDAL HALOMETHYL KETONES AND HYDRATES” (FMC CORPORATION, priority 2018, published 2022)

Legend:
[1] = tested on: Puccinia recondita f. sp. tritici; assay: Test B: test suspension sprayed on wheat seedlings one day before inoculation with Puccinia recondita f. sp. tritici spores (wheat leaf rust), disease rating; type: in vivo; settings: 10 ppm test suspension, 100 = 100% disease control, 0 = no control
In short: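 Wheat seedlings were sprayed to run-off with compound suspended in 50/50 acetone/water containing 250 ppm PEG400, then inoculated with P. recondita f. sp. tritici spores the next day. Plants were held 24 h in saturated air at 20 °C, then 6 days in a growth chamber at 20 °C. Disease control was rated 0–100% relative to controls, with some entries run at 50 or 10 ppm.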

Phakopsora pachyrhizi = assay: Test A: test suspension sprayed on soybean seedlings one day before inoculation with Phakopsora pachyrhizi spores (Asian soybean rust), visual disease rating; type: in vivo; settings: 10 ppm test suspension, 100 = 100% disease control, 0 = no control
In short: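 Soybean seedlings were sprayed to run-off with test suspension (acetone 3% of volume, acetone/water 50/50, 250 ppm PEG400) and inoculated with rust spores one day later. Incubation: 24 h saturated atmosphere at 22° C, then 8 days growth chamber at 22° C; scores 0–100 relative to untreated controls.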

| SMILES | Test B rating (disease control) [1] [%] | Test A rating (disease control) (Phakopsora pachyrhizi) [%] |
| --- | --- | --- |
| N#CCOC(=O)c1cnn(Cc2ccc(OCC3(C(F)(F)F)OCCO3)cc2)c1 [compound 172] | 0 | 100 |
| FC(F)(F)c1nc(-c2ccc(OCC3(C(F)(F)F)OCCO3)cc2)no1 [compound 173] | 0 | 0 |
| NCc1ccc(OCC2(C(F)(F)F)OCCO2)cc1 [compound 174] | 0 | 0 |
| CC(C)C(=O)NCc1ccc(OCC2(C(F)(F)F)OCCO2)cc1 [compound 175] | 0 | 0 |
| O=C(NCc1ccc(OCC2(C(F)(F)F)OCCO2)cc1)C1CC1 [compound 176] | 0 | 0 |
| OCc1ccc(OCC2(C(F)(F)F)OCCO2)cc1 [compound 178] | 0 | 0 |
| O=C(NCc1ccc(OCC2(C(F)(F)F)OCCO2)cc1)c1cccc(C(F)(F)F)c1 [compound 179] | 0 | 0 |
| CCO/C(=C\Oc1ccc(Cn2cc(Cl)cn2)cc1)C(F)(F)F [compound 180] | 0 | 0 |
| CCO/C(=C\Oc1ccc(Cn2ccc(C(F)(F)F)n2)cc1)C(F)(F)F [compound 181] | 0 | 0 |
| CCO/C(=C\Oc1ccc(Cn2cc(C(F)(F)F)cn2)cc1)C(F)(F)F [compound 182] | 0 | 0 |
| CCO/C(=C\Oc1ccc(Cn2cc(Br)cn2)cc1)C(F)(F)F [compound 183] | 0 | 0 |
| CCO/C(=C\Oc1ccc(CN2C(=O)c3ccccc3C2=O)cc1)C(F)(F)F [compound 184] | 0 | 0 |
| C=CCOC(=O)c1cnn(Cc2ccc(OCC3(C(F)(F)F)OCCO3)cc2)c1 [compound 188] | 0 | 100 |
| COC(=O)c1ccc(OCC2(C(F)(F)F)OCCO2)cc1 [compound 189] | 0 | 0 |
| FC(F)(F)C1(COc2ccc(-c3ccccc3)cc2)OCCO1 [compound 190] | 0 | 0 |
| FC(F)(F)C1(COc2ccc(Oc3ccccc3)cc2)OCCO1 [compound 191] | 0 | 0 |
| FC(F)(F)C1(COc2ccc(Cc3ccccc3)cc2)OCCO1 [compound 192] | 0 | 0 |
| CCO/C(=C\Oc1ccc(COC(N)=O)cc1)C(F)(F)F [compound 193] | 86 | 0 |
| CCO/C(=C\Oc1ccc(CO)cc1)C(F)(F)F [compound 195] | 0 | 0 |
| CCNC(=O)OCc1ccc(O/C=C(\OCC)C(F)(F)F)cc1 [compound 196] | 74 | 0 |
| O=C(NCC(F)(F)F)c1cnn(Cc2ccc(OCC3(C(F)(F)F)OCCO3)cc2)c1 [compound 197] | 0 | 0 |
| CN(C)C(=O)c1cnn(Cc2ccc(OCC3(C(F)(F)F)OCCO3)cc2)c1 [compound 198] | 0 | 0 |
| O=C(OCc1ccccn1)c1cnn(Cc2ccc(OCC3(C(F)(F)F)OCCO3)cc2)c1 [compound 199] | 0 | 100 |
| O=C(OCc1cccnc1)c1cnn(Cc2ccc(OCC3(C(F)(F)F)OCCO3)cc2)c1 [compound 200] | 0 | 100 |
| O=C(OCc1ccncc1)c1cnn(Cc2ccc(OCC3(C(F)(F)F)OCCO3)cc2)c1 [compound 201] | 0 | 100 |

| SMILES | Test B rating (disease control) [1] [%] | Test A rating (disease control) (Phakopsora pachyrhizi) [%] |
| --- | --- | --- |
| O=C(OCC(=O)C1CCCCC1)c1cnn(Cc2ccc(OCC3(C(F)(F)F)OCCO3)cc2)c1 [compound 202] | 0 | 100 |
| COC(=O)COC(=O)c1cnn(Cc2ccc(OCC3(C(F)(F)F)OCCO3)cc2)c1 [compound 203] | 0 | 50 |
| O=C(OCC1OCCO1)c1cnn(Cc2ccc(OCC3(C(F)(F)F)OCCO3)cc2)c1 [compound 204] | 0 | 100 |
| CCO/C(=C\Oc1ccc(Cn2cc(C#N)cn2)cc1)C(F)(F)F [compound 205] | 0 | 0 |
| O=S(=O)(NCc1ccc(OCC2(C(F)(F)F)OCCO2)cc1)C(F)(F)F [compound 207] | 0 | 0 |
| N#Cc1cnn(Cc2ccc(OCC3(C(F)(F)F)OCCO3)cc2)c1 [compound 209] | 0 | 89 |
| CCO/C(=C\Oc1ccc(CNC(=O)C(C)C)cc1)C(F)(F)F [compound 210] | 0 | 0 |
| O=C(CC(F)(F)F)NCc1ccc(OCC2(C(F)(F)F)OCCO2)cc1 [compound 212] | 0 | 44 |
| COC(C)C(=O)NCc1ccc(OCC2(C(F)(F)F)OCCO2)cc1 (stereo not shown) [compound 214] | 0 | 0 |
| CCO/C(=C\Oc1ccc(Cn2cc(C(=O)OCCOC)cn2)cc1)C(F)(F)F [compound 222] | 0 | 100 |
| CCO/C(=C\Oc1ccc(CN2CCCC2=O)cc1)C(F)(F)F [compound 224] | 0 | 0 |
| CCO/C(=C\Oc1ccc(CN2CCC(C)(C)C2=O)cc1)C(F)(F)F [compound 225] | 0 | 0 |
| CCO/C(=C\Oc1ccc(Cn2c(=O)oc3ccccc32)cc1)C(F)(F)F [compound 226] | 0 | 0 |
| C=C(C)COC(=O)c1cnn(Cc2ccc(OCC3(C(F)(F)F)OCCO3)cc2)c1 [compound 228] | 0 | 100 |
| CCO/C(=C\Oc1ccc(C(=O)OC)cc1)C(F)(F)F [compound 230] | 0 | 0 |
| CCOC(=O)c1ccn(Cc2ccc(OCC3(C(F)(F)F)OCCO3)cc2)n1 [compound 232] | 0 | 98 |
| CON(Cc1ccc(OCC2(C(F)(F)F)OCCO2)cc1)C(=O)C(C)C [compound 235] | 0 | 97 |
| CON(Cc1ccc(OCC2(C(F)(F)F)OCCO2)cc1)C(=O)C1CC1 [compound 236] | 0 | 75 |
| CCCC(=O)N(Cc1ccc(OCC2(C(F)(F)F)OCCO2)cc1)OC [compound 237] | 0 | 97 |
| CON(Cc1ccc(OCC2(C(F)(F)F)OCCO2)cc1)C(=O)OC(C)(C)C [compound 238] | 0 | 73 |
| N#CCc1ccc(OCC2(C(F)(F)F)OCCO2)cc1 [compound 239] | 0 | 0 |
| CCOCc1cnn(Cc2ccc(OCC3(C(F)(F)F)OCCO3)cc2)c1 [compound 240] | 0 | 99 |
| CCOC(=O)c1ccnn1Cc1ccc(O/C=C(\OCC)C(F)(F)F)cc1 [compound 241] | 0 | 0 |
| C=C(C)COC(=O)c1cnn(Cc2ccc(O/C=C(\OCC)C(F)(F)F)cc2)c1 [compound 242] | 0 | 100 |
| CCO/C(=C\Oc1ccc(Cn2cc(C(=O)OCC(=O)c3ccccc3)cn2)cc1)C(F)(F)F [compound 244] | 0 | 100 |
